Assay results from patent US20150143553A1, “Methods And Compositions Comprising A Drosophila Model Of Amyotrophic Lateral Sclerosis” (priority 2013, published 2015).
Counter-ions that a name gives are not always drawn.

What follows are molecules tested on Drosophila larvae expressing D169G TDP-43 in motor neurons (assay: Drug screen: rescue of lethality caused by D169G TDP-43 expression in motor neurons (D42 Gal4)). Settings: transgene D169G; 50 μM in fly food.
Format: in vivo
Procedure: 1200 FDA approved drugs from the Prestwick collection were fed to flies expressing TDP-43 at an initial concentration of 50 μM (as previously described in Chang et al., 2008).
FDA approved drugs from the Prestwick collection (200 mM in DMSO) are mixed with yeast-cornmeal based food and a bromophenol blue (as a mixing indicator) at a final concentration of 50 μM. Larvae expressing TDP-43 (wild type or mutant, as shown) are raised on drug containing food.
FDA approved drugs from the Prestwick collection (200 mM in DMSO) were mixed with yeast-cornmeal based food and a bromophenol blue (as a mixing indicator) at a final concentration of 50 μM. Larvae expressing TDP-43 (wt or mutant) were raised on drug containing food.
(§1) Using a Drosophila model of ALS based on TDP-43 that recapitulates several aspects of the disease pathophysiology (33, 35), a drug screen aimed at identifying FDA approved compounds with neuroprotective potential in vivo were designed (FIG. 37A). […] This phenotype was used to screen for drug candidates with therapeutic potential as determined by their ability to rescue pupal lethality and produce viable adults with extended wings (FIG. 37A).

| Molecule | Preliminary rescue result: adults with normal wings |
| --- | --- |
| CC(=O)NCCCS(=O)(=O)[O-].CC(=O)NCCCS(=O)(=O)[O-].[Ca+2] [Acamprosate Calcium] | 1 Adult Normal Wings Adults |
| Oc1c(Cl)cc(Cl)c2cccnc12 [Chloroxine] | 1 Adult Normal Wings Adults |
| C[C@]12Cc3c[nH]nc3C[C@@H]1CC[C@@H]1[C@@H]2CC[C@@]2(C)[C@H]1CC[C@]2(C)O [Stanozolol] | 3 Adult Normal Wings Adults |
| Cc1cccc(CN2CCN(C(c3ccccc3)c3ccc(Cl)cc3)CC2)c1 (stereo not shown) [Meclozine Dihcl] | 6 Adults Normal Wings |

What follows are molecules tested on Drosophila larvae expressing G298S TDP-43 in motor neurons (assay: Drug screen: rescue of lethality caused by G298S TDP-43 expression in motor neurons (D42 Gal4)). Settings: transgene G298S4; 30 μM in fly food.
Format: in vivo
Excerpt: (§2) […] Larvae expressing TDP-43 (wild type or mutant, as shown) are raised on drug containing food.
(§3) […] Larvae expressing TDP-43 (wt or mutant) were raised on drug containing food.
as §1
Larvae expressing TDP-43 in motor neurons (D42>TDP-43) were raised on fly food containing different amounts of drug (1, 10 and 25 μM, see Materials and Methods for details) or Dimethyl Sulfoxide (DMSO) as vehicle control (FIG. 37B, C).
(§4) UAS TDP-43 males were crossed with D42-Gal4 female virgins on fly food containing either DMSO or pioglitazone. For DMSO controls, the same volume of DMSO as the corresponding drug concentration was added. Bromophenol blue was added to a final concentration of approximately 0.02% to ensure homogeneity. Crosses were made on drug food with 3 female virgins and 2 males in each vial, and were maintained at 25° C. unless noted. The parents were discarded after 5-7 days then the vials were screened for adult progeny with straight wings from day 14 to day 25. All adults were screened for TDP-43 expression by visualizing the YFP tag. Total number of pupae was counted on day 25. Percent survival was calculated using the formula (total number of straight-winged adults/total number of pupae)×100. All experiments were performed in triplicate.

| Molecule | Preliminary rescue result: adults with normal wings [Adult Normal Wings Adults] |
| --- | --- |
| c1ccc(-c2ccc(C(c3ccccc3)n3ccnc3)cc2)cc1 (stereo not shown) [Bifonazole] | 1 |

Same assay, conditions: transgene G298S; 30 μM in fly food

| Molecule | Preliminary rescue result: adults with normal wings |
| --- | --- |
| Cn1c([N+](=O)[O-])cnc1COC(N)=O [Ronidazole] | 1 Adult Normal Wings Adults |
| N#CC(c1ccc(Cl)cc1)c1c(Cl)cc(-n2ncc(=O)[nH]c2=O)cc1Cl (stereo not shown) [Diclazuril] | 1 Adults |
| C1N2CN3CN1CN(C2)C3 [Methenamine] | 1 Adults |
| O=C(NCCNCC(O)COc1ccc(O)cc1)N1CCOCC1.O=C(NCCNCC(O)COc1ccc(O)cc1)N1CCOCC1.O=C(O)/C=C/C(=O)O (stereo not shown) [Xamoterol HemifiμMarate] | 1 Adult Normal Wing Adults |
| CCn1nc(C(=O)O)c(=O)c2cc3c(cc21)OCO3 [Cinoxacin] | 1 Adult Normal Wings Adults |
| CN(Cc1cc(Br)cc(Br)c1N)C1CCCCC1.Cl [Romhexine Hydrochloride] | 1/2 Adult Normal Wings |
| Nc1nc(NC2CC2)c2ncn([C@H]3C=C[C@@H](CO)C3)c2n1 [Abacavir Sulfate] | 1 Adult Normal Wings Adults |
| CCC1(c2cccc(O)c2)CCCCN(C)C1 (stereo not shown) [Meptazinol Hydrochloride] | 1 Adult Normal Wing Adults |
| CCCC(CCC)C(=O)O [Valproic Acid] | 1 Adults |
| CN1CCN(c2c(F)cc3c(=O)c(C(=O)O)cn(CCF)c3c2F)CC1 [Fleroxacin] | 1 Adults |

Same assay, conditions: transgene G298S; 50 μM in fly food

| Molecule | Preliminary rescue result: adults with normal wings |
| --- | --- |
| CN1CCN(C2=Nc3cc(Cl)ccc3Nc3ccccc32)CC1 [Clozapine] | 1 Adult Normal Wings Adults |
| CN(C)CCC=C1c2ccccc2CCc2ccccc21.Cl [Amitryptiline Hydrochloride] | 1 Adult Normal Wings Adults |
| COc1ccc(C(CN(C)C)C2(O)CCCCC2)cc1 (stereo not shown) [Venlafaxine] | 1 Adult Normal Wings Adults |
| COc1cc2ncnc(Nc3ccc(F)c(Cl)c3)c2cc1OCCCN1CCOCC1 [Gefitinib] | 1 Adult Normal Wings Adults |
| CCN(CC)C(=O)/C(C#N)=C/c1cc(O)c(O)c([N+](=O)[O-])c1 [Entacapone] | 5 Adult Normal Wings Adults |
| NCCCNCCSP(=O)(O)O [Amifostine] | 1 Adult Normal Wings Adults |
| C[N+]1(C)CCOC(O)(c2ccc(-c3ccc(C4(O)C[N+](C)(C)CCO4)cc3)cc2)C1.[Br-].[Br-] (stereo not shown) [Hemicholinium Bromide] | 1 Adult Normal Wings Adults |
| Cc1ccccc1C(OCCN(C)C)c1ccccc1 (stereo not shown) [Orphenadrine] | 1 Adult Normal Wings Adults |
| COc1ccc(-c2ccc(=N)n(CCCC(=O)O)n2)cc1 [Gabazine] | 2 Adults Straight Wings |
| O=c1n(CCCN2CCN(c3cccc(Cl)c3)CC2)nc2ccccn12 [Trazodone] | 1 Adult Normal Wings Adults |
| C[C@H](CCC(=O)O)[C@H]1CC[C@H]2[C@@H]3[C@H](O)C[C@@H]4C[C@H](O)CC[C@]4(C)[C@H]3CC[C@]12C [Chenodiol] | 1 Adult Normal Wings Adults |
| CCOC(=O)C1=C(C)NC(C)=C(C(=O)OCC)C1c1ccccc1/C=C/C(=O)OC(C)(C)C [Lacidipine] | 7 Adults |
| O=C(O)c1ccccc1Nc1cccc(C(F)(F)F)c1 [Flufenamic Acid] | 1 Adult Normal Wings Adults |
| CN(C)CCC(c1ccccc1)c1ccccn1 (stereo not shown) [Pheniramine Maleate] | 1 Adult Normal Wings Adults |
| Nc1ccn([C@@H]2CS[C@H](CO)O2)c(=O)n1 [Lamivudine] | 2 Adults Normal Wings |
| C[N+]1(C)CCCC(OC(=O)C(O)(c2ccccc2)c2ccccc2)C1 (stereo not shown) [Mepenzolate Bromide] | 2 Adult Normal Wings Adults |
| CCCN(CCC)C(=O)C(CCC(=O)O)NC(=O)c1ccccc1 (stereo not shown) [Proglumide] | 3 Adults Normal Wings |
| Pyrantel Tartrate | 1 Adult Normal Wings Adults |

These molecules were tested on Drosophila larvae expressing wild-type TDP-43 in motor neurons (assay: Drug screen: rescue of lethality caused by wild-type TDP-43 expression in motor neurons (D42 Gal4)). Settings: transgene WT2; 30 μM in fly food.
Format: in vivo
Excerpt: as §2, §3
Using a Drosophila model of ALS based on TDP-43 that recapitulates several aspects of the disease pathophysiology (33, 35), a drug screen aimed at identifying FDA approved compounds with neuroprotective potential in vivo were designed (FIG. 37A). […] This phenotype was used to screen for drug candidates with therapeutic potential as determined by their ability to rescue pupal lethality and produce viable adults with extended wings (FIG. 37A). […]
as §4

| Molecule | Preliminary rescue result: adults with normal wings |
| --- | --- |
| N#CC(c1ccc(Cl)cc1)c1c(Cl)cc(-n2ncc(=O)[nH]c2=O)cc1Cl (stereo not shown) [Diclazuril] | 2 Adults |
| C1N2CN3CN1CN(C2)C3 [Methenamine] | 2 Adults |
| CC1(C)S[C@@H]2[C@H](NC(=O)[C@H](NC(=O)N3CCNC3=O)c3ccccc3)C(=O)N2[C@H]1C(=O)[O-].[Na+] [Azlocillin Na Salt] | 1 Adult Normal Wings Adults |
| CCCC(CCC)C(=O)O [Valproic Acid] | 2 Adults |
| CCCCNc1c(C(=O)OCC)c(C)nc2c1cnn2CC [Tracazolate Hydrochloride] | 1 Adult Normal Wings Adults |
| CC(C)(Oc1ccc(Cl)cc1)C(=O)O [Clofibric Acid] | 2 Adult Normal Wings Adults |
| COc1ccc(C(=O)c2ccccc2)c(O)c1 [Oxybenzone] | 1 Adult Normal Wings Adults |
| CN1CCN(c2c(F)cc3c(=O)c(C(=O)O)cn(CCF)c3c2F)CC1 [Fleroxacin] | 3 Adults |
| CNCCCC1c2ccccc2C=Cc2ccccc21 [Protriptyline Hydrochloride] | 1 Adult Normal Wings Adults |
| CC(=O)N[C@@H](CC(C)C)C(=O)O [N-Acetyl-L-Leucine] | 1 Adult Normal Wings Adults |
| CC1CC(OC(=O)C(O)c2ccccc2)CC(C)(C)N1C (stereo not shown) [Eucatropine HCl] | 1 Adult Normal Wings Adults |
| CC1(C)S[C@@H]2[C@H](NC(=O)[C@H](C(=O)[O-])c3ccsc3)C(=O)N2[C@H]1C(=O)[O-].[Na+].[Na+] [Ticarcillin Sodiim] | 1 Adult Normal Wings Adults |
| CCCCc1ccc2[nH]c(NC(=O)OC)nc2c1 [Parbendazole] | 2/1 |
| CCCOc1cc(N)ccc1C(=O)OCCN(CC)CC [Propoxycaine Hcl] | 1 Adult Normal Wings Adults |
| COc1ccc2c(c1)C(=O)N(CCc1ccc(S(=O)(=O)NC(=O)NC3CCCCC3)cc1)C(=O)C2(C)C [Gliquidone] | 7 Adult Normal Wings Adults |
| Cl.NCC(O)c1ccc(O)cc1 (racemic) [(+,−)-Octopamine HCl] | 5 Adult Normal Wings Adults |

Same assay, conditions: transgene WT2; 50 μM in fly food

| Molecule | Preliminary rescue result: adults with normal wings |
| --- | --- |
| COc1ccc(-c2ccc(=N)n(CCCC(=O)O)n2)cc1 [Gabazine] | 4 Adults Normal Wings, |
| CCOC(=O)C1=C(C)NC(C)=C(C(=O)OCC)C1c1ccccc1/C=C/C(=O)OC(C)(C)C [Lacidipine] | 3 Adults |
| O=P(O)(O)C(Cl)(Cl)P(=O)(O)O [Clodronate] | 3 Adult Normal Wings Adults |
| CCCN(CCC)C(=O)C(CCC(=O)O)NC(=O)c1ccccc1 (stereo not shown) [Proglumide] | 1 Adult Normal Wings, Adults |
| COc1ccc2[nH]cc(CCNC(C)=O)c2c1 [Melatonin] | 4 Adults Normal Wings |
| CCCc1nc(C)c2c(=O)[nH]c(-c3cc(S(=O)(=O)N4CCN(CC)CC4)ccc3OCC)nn12 [Vardenafil] | 3 Adult Normal Wings Adults |
| O=S(=O)(O)CCS [Mesna] | 4 Adult Normal Wings Adults |
| CCN1CCCC1CNC(=O)c1cc(S(N)(=O)=O)ccc1OC (stereo not shown) [Sulpiride] | 1 Adult Normal Wings Adults |
| O=C1c2c(O)cccc2Cc2cccc(O)c21 [Anthralin] | 1 Adult Normal Wings Adults |
